Like-named read-outs stand apart in the source and are kept apart here.
What was measured:
[1] = test system: Key Broadleaf Weed and Crop Species; assay: Post-emergent Test II herbicidal activity (Table 15); assay type: in vivo; conditions: post-emergence, 336 h, 14 d; for pest or weed control at 35 g/ha: 35 g ai/ha; for pest or weed control at 70 g/ha: 70 g ai/ha; for pest or weed control at 140 g/ha: 140 g ai/ha
Procedure, shortened: (§1)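 Plants grown in greenhouse (~15 h photoperiod, 23-29 °C day, 22-28 °C night) to first or second true leaf stage, then sprayed post-emergence at 187 L/ha with a high rate and 1/2×, 1/4×, 1/8× and 1/16× dilutions. Injury scored visually after 14 d, 0-100% versus untreated plants.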

[2] = test system: Key Grass and Sedge Weeds as well as Grass Crops; assay: Post-emergent Test II herbicidal activity (Table 16); assay type: in vivo; conditions: post-emergence, 336 h, 14 d; for pest or weed control at 35 g/ha: 35 g ai/ha; for pest or weed control at 70 g/ha: 70 g ai/ha; for pest or weed control at 140 g/ha: 140 g ai/ha
Procedure, shortened: as §1

[3] = Abutilon theophrasti, velvetleaf (Abutilon theophrasti), read-out: Visual Growth Reduction (%) 14 Days After Application, ABUTH
[4] = Amaranthus retroflexus, redroot pigweed (Amaranthus retroflexus), read-out: Visual Growth Reduction (%) 14 Days After Application, AMARE
[5] = Brassica napus, oilseed rape, canola (Brassica napus), read-out: Visual Growth Reduction (%) 14 Days After Application, BRSNN
[6] = Chenopodium album, lambsquarters (Chenopodium album), read-out: Visual Growth Reduction (%) 14 Days After Application, CHEAL
[7] = Euphorbia heterophylla, wild poinsettia (Euphorbia heterophylla), read-out: Visual Growth Reduction (%) 14 Days After Application, EPHHL
[8] = Helianthus annuus, sunflower (Helianthus annuus), read-out: Visual Growth Reduction (%) 14 Days After Application, HELAN
[9] = Cyperus esculentus, yellow nutsedge (Cyperus esculentus), read-out: Visual Growth Reduction (%) 14 Days After Application, CYPES
[10] = Oryza sativa, rice (Oryza sativa), read-out: Visual Growth Reduction (%) 14 Days After Application, ORYSA
[11] = Setaria faberi, giant foxtail (Setaria faberi), read-out: Visual Growth Reduction (%) 14 Days After Application, SETFA
[12] = Triticum aestivum, wheat, spring (Triticum aestivum), read-out: Visual Growth Reduction (%) 14 Days After Application, TRZAS
[13] = Zea mays, maize, corn (Zea mays), read-out: Visual Growth Reduction (%) 14 Days After Application, ZEAMX

Compound	pest or weed control at 35 g/ha [1, 3] [%]	pest or weed control at 70 g/ha [1, 3] [%]	pest or weed control at 140 g/ha [1, 3] [%]	pest or weed control at 35 g/ha [1, 4] [%]	pest or weed control at 70 g/ha [1, 4] [%]	pest or weed control at 140 g/ha [1, 4] [%]	pest or weed control at 35 g/ha [1, 5] [%]	pest or weed control at 70 g/ha [1, 5] [%]	pest or weed control at 140 g/ha [1, 5] [%]	pest or weed control at 35 g/ha [1, 6] [%]	pest or weed control at 70 g/ha [1, 6] [%]	pest or weed control at 140 g/ha [1, 6] [%]	pest or weed control at 35 g/ha [1, 7] [%]	pest or weed control at 70 g/ha [1, 7] [%]	pest or weed control at 140 g/ha [1, 7] [%]	pest or weed control at 35 g/ha [1, 8] [%]	pest or weed control at 70 g/ha [1, 8] [%]	pest or weed control at 140 g/ha [1, 8] [%]	pest or weed control at 35 g/ha [2, 9] [%]	pest or weed control at 70 g/ha [2, 9] [%]	further results
COC(=O)c1nc(-c2ccc(Cl)c3occc23)nc(N)c1Cl [Compound 2.20]	45 to 59	60 to 74	60 to 74	95 to 100	95 to 100	95 to 100	0 to 29	0 to 29	30 to 44	85 to 94	95 to 100	95 to 100	0 to 29	0 to 29	0 to 29	85 to 94	95 to 100	95 to 100	0 to 29	0 to 29	pest or weed control at 140 g/ha [2, 9]: 0 to 29%; pest or weed control at 35 g/ha [2, 10]: 0 to 29%; pest or weed control at 70 g/ha [2, 10]: 0 to 29%; pest or weed control at 140 g/ha [2, 10]: 0 to 29%; pest or weed control at 35 g/ha [2, 11]: 0 to 29%; pest or weed control at 70 g/ha [2, 11]: 30 to 44%; pest or weed control at 140 g/ha [2, 11]: 60 to 74%; pest or weed control at 35 g/ha [2, 12]: 0 to 29%; pest or weed control at 70 g/ha [2, 12]: 0 to 29%; pest or weed control at 140 g/ha [2, 12]: 0 to 29%; pest or weed control at 35 g/ha [2, 13]: 0 to 29%; pest or weed control at 70 g/ha [2, 13]: 0 to 29%; pest or weed control at 140 g/ha [2, 13]: 0 to 29%
COC(=O)c1nc(-c2ccc(Cl)c3occc23)nc(N)c1OC [Compound 2.21]	30 to 44	60 to 74	60 to 74	95 to 100	95 to 100	95 to 100	30 to 44	30 to 44	45 to 59	85 to 94	85 to 94	95 to 100	0 to 29	0 to 29	0 to 29	60 to 74	75 to 84	75 to 84	0 to 29	0 to 29	pest or weed control at 140 g/ha [2, 9]: 0 to 29%; pest or weed control at 35 g/ha [2, 10]: 0 to 29%; pest or weed control at 70 g/ha [2, 10]: 0 to 29%; pest or weed control at 140 g/ha [2, 10]: 0 to 29%; pest or weed control at 35 g/ha [2, 11]: 0 to 29%; pest or weed control at 70 g/ha [2, 11]: 0 to 29%; pest or weed control at 140 g/ha [2, 11]: 0 to 29%; pest or weed control at 35 g/ha [2, 12]: 0 to 29%; pest or weed control at 70 g/ha [2, 12]: 0 to 29%; pest or weed control at 140 g/ha [2, 12]: 0 to 29%; pest or weed control at 35 g/ha [2, 13]: 0 to 29%; pest or weed control at 70 g/ha [2, 13]: 0 to 29%; pest or weed control at 140 g/ha [2, 13]: 0 to 29%

Source: patent US20170050957A1, “4-AMINO-6-(HETEROCYCLIC)PICOLINATES AND 6-AMINO-2-(HETEROCYCLIC)PYRIMIDINE-4-CARBOXYLATES AND THEIR USE AS HERBICIDES” (Dow AgroSciences LLC, priority 2013, published 2017)
